Test system: Female NZBW/F1 mice
Assay: Spontaneous lupus-like syndrome in NZBW/F1 mice (second SLE model)
Assay type: in vivo
Method: Female NZBW/F1 mice develop a lupus-like syndrome spontaneously. UBE (SEQ ID NO:2) (0.3 μg/kg) was administered to female NZBW/F1 mice daily (except for Saturday and Holidays), starting at the indicated time point (170 days) (n=10). Urine was obtained by spontaneous urination and the levels of protein (mg/dl) in the urine were evaluated throughout the treatment period using commercial sticks.
Quantitative histopathology analysis of the kidneys and lungs were also performed for this model (FIG. 12A-D). Kidneys were removed from control and UBE treated mice (0.3 lug/kg) then fixed in formalin, sliced, and stained by H&E. Representative histophathologies of the control versus UBE treated mice is shown FIGS. 12A versus 12B at 10× magnification, respectively. Note glomerular sclerosis (GS), thickening glomerular mesangium (G), protein accumulation in tubular lumen (PC), interstitial fibrosis (I) and perivascular lymphoid infiltration (lymphoid) in the control (12A) while normal appearance of kidney in the UBE-treated group (12B). The quantitative histopathology analysis with regard to tubular and interstitial damage is presented in FIG. 12C and FIG. 12D, respectively.
Quantitative histopathology analysis of the lungs was also performed for this model (FIG. 12E-G). Representative histophathologies of control versus UBE treated mice (0.3 μg/kg) is shown FIGS. 12E versus 12F at 10× magnification, respectively. Note heavy perivascular lymphoid infiltration (lymphoid) in the control samples (FIG. 12E) while normal appearance in the UBE-treated group (FIG. 12F).
In order to determine the levels of anti-dsDNA antibodies, blood was obtained by cardiac puncture of the NZBW/F1 mice at the indicated endpoint in UBE treatment, and the serum levels of anti-dsDNA antibodies and BLys (B lymphocyte stimulator) levels were determined by ELISA using a commercial kit (R&D Systems, Minneapolis, Minn., USA).
To evaluate the effect of UBE on lymphocyte function in NZBW/F1 mice, spleen cells and blood samples were isolated from control and UBE-treated (0.3 microgram per kilogram) mice and subjected to FACS analysis of double negative CD4−CD8− (expressed as percent CD3+) (FIG. 14).
Blood cells were similarly evaluated and representative results from control and UBE treated animals (0.3 μg/kg) are shown in FIGS. 14D and 14E, respectively.

SMPPIVRFDHPFLFIIFEEHTQSPLFVGKVVDPTHK (listed as Mus musculus) [UBE, 36-mer peptide corresponding to residues 378-413 of Mus musculus alpha-1-antitrypsin (serpin a1c)]
rise in urinary protein levels (proteinuria) (UBE 0.3 μg/kg daily from 170 days, FIG. 11A): abrogated
pathological score of the tubular areas (kidney histopathology) (UBE 0.3 μg/kg, FIG. 12C): significant reduction
pathological score of the interstitial areas (kidney histopathology) (UBE 0.3 μg/kg, FIG. 12D): significant reduction
pathological score, lung parenchymal damage (UBE 0.3 μg/kg, FIG. 12G): significant reduction
serum BLys (B lymphocyte stimulator) level, ELISA (UBE 0.3 μg/kg, FIG. 13A): significant reduction
serum anti-dsDNA antibody level, ELISA (UBE 0.3 μg/kg, FIG. 13B): significant reduction
double negative CD4−CD8− cells, FACS (blood, UBE 0.3 μg/kg, FIG. 14F): dramatically reduced
double negative CD4−CD8− cells (percent CD3+), FACS (spleen, UBE 0.3 μg/kg, FIG. 14C): dramatically reduced

From US9518107B2, “Pharmaceutical compositions containing polypeptides derived from α-1 antitrypsin and methods of use thereof” (YISSUM RESEARCH DEVELOPMENT COMPANY OF THE HEBREW …, priority 2010, dated 2016)
